Assay [1] concerns RF/6A. The settings on record: Macaca mulatta, 50 uM.
Description: Antiangiogenic activity in rhesus monkey RF/6A cells assessed as inhibition of VEGF-A-induced microtube formation at 50 uM pre-incubated for 15 mins followed by VEGF-A stimulation for 4 hrs by matrigel based capillary tube formation assay
Assay [2] deals with HUVEC. The conditions noted are these: Homo sapiens, 50 uM.
Description: Antiangiogenic activity in HUVEC cells assessed as inhibition of VEGF-A-induced microtube formation at 50 uM pre-incubated for 15 mins followed by VEGF-A stimulation for 4 hrs by matrigel based capillary tube formation assay

Structures are written as SMILES. Calls of active or inactive are those of the source. No cut-off for these calls is given here. Peptide text beside a SMILES is read from it.

As to `CC(C)C[C@@H]1NC(=O)CNC(=O)[C@H](CCC(=O)O)NC(=O)[C@H](CC(=O)O)NC(=O)[C@H](CCCCN)NC(=O)[C@H](Cc2ccc(O)cc2)NC(=O)CC[C@@H](C(=O)NCCc2ccc(O)c(O)c2)NC(=O)[C@H](CCC(=O)O)NC1=O` (HELM PEPTIDE1{Y.K.D.E.G.L.E.E.[Oc1ccc(CCN[*:1])cc1O]}$PEPTIDE1,PEPTIDE1,1:R1-8:R3$$$V2.0), the inhibition entry in assay [1] and in assay [2] was “Active” each time.

The values above are taken from ChEMBL document CHEMBL4385591, “Structural studies of the binding of an antagonistic cyclic peptide to the VEGFR1 domain 2” (Eur J Med Chem, 2019).
